# Source: ChEMBL document CHEMBL1201862, “PubChem BioAssay data set” (2004)
# The source made the active and inactive calls. No stated cut-off is given here; in the data, actives have a measured IC50 and inactives only a lower limit.
# Target: Envelope glycoprotein gp160 (Human immunodeficiency virus 1, UniProt Q6QLK5)
# Assay: cell-free HIV fusion peptide-binding blockers – biochemical, uHTS, fluorescence dequenching, […] (AID 1986)
# Chain of Envelope glycoprotein gp160 (Q6QLK5 whole entry, the tested form may be a part): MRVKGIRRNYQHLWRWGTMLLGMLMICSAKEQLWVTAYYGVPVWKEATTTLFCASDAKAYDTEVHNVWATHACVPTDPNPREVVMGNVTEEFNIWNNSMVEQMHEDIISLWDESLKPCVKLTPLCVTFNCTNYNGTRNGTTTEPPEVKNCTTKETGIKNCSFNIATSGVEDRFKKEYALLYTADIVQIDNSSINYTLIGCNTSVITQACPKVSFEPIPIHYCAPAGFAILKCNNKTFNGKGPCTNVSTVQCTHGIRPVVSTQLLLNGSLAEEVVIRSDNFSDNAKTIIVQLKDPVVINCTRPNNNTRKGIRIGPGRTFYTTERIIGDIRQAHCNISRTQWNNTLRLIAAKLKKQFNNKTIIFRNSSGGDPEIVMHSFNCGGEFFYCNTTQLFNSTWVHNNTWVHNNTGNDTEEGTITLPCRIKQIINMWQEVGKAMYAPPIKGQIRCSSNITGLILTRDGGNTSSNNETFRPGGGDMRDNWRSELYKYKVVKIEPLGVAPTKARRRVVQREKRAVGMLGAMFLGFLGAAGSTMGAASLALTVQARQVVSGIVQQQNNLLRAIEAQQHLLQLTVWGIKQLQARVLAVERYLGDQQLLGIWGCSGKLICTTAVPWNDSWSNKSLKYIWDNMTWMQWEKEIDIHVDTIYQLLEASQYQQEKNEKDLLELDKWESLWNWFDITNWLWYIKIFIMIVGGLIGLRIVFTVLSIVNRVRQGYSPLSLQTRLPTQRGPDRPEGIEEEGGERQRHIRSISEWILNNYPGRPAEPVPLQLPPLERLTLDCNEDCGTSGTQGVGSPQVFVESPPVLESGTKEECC
compound,measurement,value
Oc1c(Br)cc(Br)c(/C=N/n2c(S)nnc2-c2ccccc2)c1Br,IC50,12 µM (active)
